System: non-operable neck tumor of unknown origin and metastasis in the lungs
Assay: Oral inorganic mercury (II) treatment of a pet English Setter: blood data and clinical follow-up
Assay type: in vivo, dog
Parameters: Anion Gap / MCV / MCH / MCHC / Neutrophils, absolute / Lymphocytes, absolute / Monocytes, absolute / Eosinophils, absolute: unit not given here
Experimental: A 10 years old female English Setter was diagnosed with a non-operable neck tumor of unknown origin and metastasis in the lungs.
The dog completed 130-day inorganic mercury (II) treatment that consisted of 58 days of the first treatment course followed by 20 days of an interval period, and the 52-day second treatment course. The formulation contained 1 mM mercury acetate in 20 mM sodium acetate buffer, pH 4.5, with 100 mM sucrose and 150 mM sodium chloride additives. It was introduced orally to the dog three times a day at 0.5 micromole Hg^2+/kg/day. At the start of the treatment, the dog was in poor health condition: was easily tired, had difficulty to swallow, heavy breathing due to lung metastasis. The tumor was easily palpated at the neck. […] These changes were correlated with reduction in ALP levels (Days 5, 22, 40, 65).
During the second treatment course the progression of the disease was slowed down, but not to the degree observed during the first treatment course. The treatment was stopped at Day 128, and the dog was euthanized 2-3 weeks later.

CC(=O)[O-].CC(=O)[O-].[Hg+2] [inorganic mercury (II), mercury acetate]
ALT (SGPT) (Day 5): 84 U/L | AST (SGOT) (Day 5): 22 U/L | Albumin (Day 5): 3.3 g/dL | Albumin/Globulin Ratio (Day 5): 1.1 | Alkaline Phosphatase (ALP) (Day 5): 204 U/L | Amylase (Day 5): 771 U/L | Anion Gap (Day 5): 26 | BUN (Day 5): 39 mg/dL | BUN/Creatinine Ratio (Day 5): 43.3 | CPK (Day 5): 84 U/L | Calcium (Day 5): 11.7 mg/dL | Chloride (Day 5): 113 mE/L | Cholesterol (Day 5): 269 mg/dL | Creatinine (Day 5): 0.9 mg/dL | Direct Billirubin (Day 5): 0 mg/dL | Eosinophils, (%) (Day 5): 4% | Eosinophils, absolute (Day 5): 576 | GGT (Day 5): 2 U/L | Globulin (Day 5): 2.9 g/dL | Glucose (Day 5): 116 mg/dL | Hematocrit (Day 5): 41.8% | Hemoglobin (Day 5): 14.5 g/dL | Indirect Billirubin (Day 5): 0.2 mg/dL | Lipase (Day 5): 799 U/L | Lymphocytes, (%) (Day 5): 48% | Lymphocytes, absolute (Day 5): 6912 | MCH (Day 5): 24.5 | MCHC (Day 5): 34.7 | MCV (Day 5): 71 | Monocytes, (%) (Day 5): 6% | Monocytes, absolute (Day 5): 864 | Na/K ratio (Day 5): 32 | Neutrophils, (%) (Day 5): 41% | Neutrophils, absolute (Day 5): 5904 | Phosphorus (Day 5): 5.2 mg/dL | Platelet count (Day 5): 534 10^3/microl | Potassium (Day 5): 4.8 mE/L | RBC (Day 5): 5.9 10^6/microl | Sodium (Day 5): 152 mE/L | T4 (Day 5): 1.4 µg/dL | Total Billirubin (Day 5): 0.2 mg/dL | Total Protein (Day 5): 6.2 g/dL | WBC (Day 5): 14.4 10^3/microl | tCO2 (Day 5): 18 mEq/L | ALT (SGPT) (Day 22): 84 U/L | AST (SGOT) (Day 22): 13 U/L | Albumin (Day 22): 3.3 g/dL | Albumin/Globulin Ratio (Day 22): 1.2 | Alkaline Phosphatase (ALP) (Day 22): 142 U/L | Amylase (Day 22): 738 U/L | Anion Gap (Day 22): 24 | BUN (Day 22): 17 mg/dL | BUN/Creatinine Ratio (Day 22): 21.3 | CPK (Day 22): 96 U/L | Calcium (Day 22): 10.8 mg/dL | Chloride (Day 22): 113 mE/L | Cholesterol (Day 22): 230 mg/dL | Creatinine (Day 22): 0.8 mg/dL | Direct Billirubin (Day 22): 0 mg/dL | Eosinophils, (%) (Day 22): 2% | Eosinophils, absolute (Day 22): 332 | GGT (Day 22): 3 U/L | Globulin (Day 22): 2.8 g/dL | Glucose (Day 22): 102 mg/dL | Hematocrit (Day 22): 44.7% | Hemoglobin (Day 22): 15.2 g/dL | Indirect Billirubin (Day 22): 0.1 mg/dL | Lipase (Day 22): 718 U/L | Lymphocytes, (%) (Day 22): 64% | Lymphocytes, absolute (Day 22): 10624 | MCH (Day 22): 24.3 | MCHC (Day 22): 34.1 | MCV (Day 22): 71 | Na/K ratio (Day 22): 26 | Neutrophils, (%) (Day 22): 34% | Neutrophils, absolute (Day 22): 5644 | Phosphorus (Day 22): 3.6 mg/dL | Platelet count (Day 22): 483 10^3/microl | Potassium (Day 22): 5.7 mE/L | RBC (Day 22): 6.26 10^6/microl | Sodium (Day 22): 150 mE/L | T4 (Day 22): 1.8 µg/dL | Total Billirubin (Day 22): 0.1 mg/dL | Total Protein (Day 22): 6.1 g/dL | WBC (Day 22): 16.6 10^3/microl | tCO2 (Day 22): 19 mEq/L | ALT (SGPT) (Day 40): 87 U/L | AST (SGOT) (Day 40): 20 U/L | Albumin (Day 40): 3.4 g/dL | Albumin/Globulin Ratio (Day 40): 1.1 | Alkaline Phosphatase (ALP) (Day 40): 111 U/L | Anion Gap (Day 40): 28 | BUN (Day 40): 22 mg/dL | BUN/Creatinine Ratio (Day 40): 24.4 | CPK (Day 40): 124 U/L | Calcium (Day 40): 11.0 mg/dL | Chloride (Day 40): 110 mE/L | Cholesterol (Day 40): 222 mg/dL | Creatinine (Day 40): 0.9 mg/dL | Direct Billirubin (Day 40): 0.1 mg/dL | Eosinophils, (%) (Day 40): 1% | Eosinophils, absolute (Day 40): 160 | GGT (Day 40): 2 U/L | Globulin (Day 40): 3.0 g/dL | Glucose (Day 40): 99 mg/dL | Hematocrit (Day 40): 46.1% | Hemoglobin (Day 40): 14.8 g/dL | Indirect Billirubin (Day 40): 0 mg/dL | Lymphocytes, (%) (Day 40): 64% | Lymphocytes, absolute (Day 40): 10240 | MCH (Day 40): 23.7 | MCHC (Day 40): 32.2 | MCV (Day 40): 74 | Monocytes, (%) (Day 40): 6% | Monocytes, absolute (Day 40): 960 | Na/K ratio (Day 40): 26 | Neutrophils, (%) (Day 40): 29% | Neutrophils, absolute (Day 40): 4640 | Phosphorus (Day 40): 4.6 mg/dL | Platelet count (Day 40): 511 10^3/microl | Potassium (Day 40): 5.7 mE/L | RBC (Day 40): 6.26 10^6/microl | Sodium (Day 40): 151 mE/L | Total Billirubin (Day 40): 0.1 mg/dL | Total Protein (Day 40): 6.4 g/dL | WBC (Day 40): 16 10^3/microl | tCO2 (Day 40): 19 mEq/L | ALT (SGPT) (Day 65): 111 U/L | AST (SGOT) (Day 65): 28 U/L | Albumin (Day 65): 3.5 g/dL | Albumin/Globulin Ratio (Day 65): 1.5 | Alkaline Phosphatase (ALP) (Day 65): 78 U/L | Amylase (Day 65): 431 U/L | Anion Gap (Day 65): 27 | BUN (Day 65): 30 mg/dL | BUN/Creatinine Ratio (Day 65): 30 | CPK (Day 65): 120 U/L | Calcium (Day 65): 10.5 mg/dL | Chloride (Day 65): 109 mE/L | Cholesterol (Day 65): 169 mg/dL | Creatinine (Day 65): 1.0 mg/dL | Direct Billirubin (Day 65): 0.1 mg/dL | Eosinophils, (%) (Day 65): 1% | Eosinophils, absolute (Day 65): 211 | GGT (Day 65): 7 U/L | Globulin (Day 65): 2.4 g/dL | Glucose (Day 65): 94 mg/dL | Hematocrit (Day 65): 44.6% | Hemoglobin (Day 65): 14.3 g/dL | Indirect Billirubin (Day 65): 0 mg/dL | Lipase (Day 65): 449 U/L | Lymphocytes, (%) (Day 65): 61% | Lymphocytes, absolute (Day 65): 12871 | MCH (Day 65): 23.5 | MCHC (Day 65): 32.1 | MCV (Day 65): 73 | Na/K ratio (Day 65): 29 | Neutrophils, (%) (Day 65): 38% | Neutrophils, absolute (Day 65): 8018 | Phosphorus (Day 65): 4.4 mg/dL | Platelet count (Day 65): 404 10^3/microl | Potassium (Day 65): 5.2 mE/L | RBC (Day 65): 6.09 10^6/microl | Sodium (Day 65): 150 mE/L | T4 (Day 65): 1.6 µg/dL | Total Billirubin (Day 65): 0.1 mg/dL | Total Protein (Day 65): 5.9 g/dL | WBC (Day 65): 21.1 10^3/microl | tCO2 (Day 65): 19 mEq/L | ALT (SGPT) (Day 103): 95 U/L | AST (SGOT) (Day 103): 25 U/L | Albumin (Day 103): 3.2 g/dL | Albumin/Globulin Ratio (Day 103): 1.3 | Alkaline Phosphatase (ALP) (Day 103): 58 U/L | Amylase (Day 103): 745 U/L | Anion Gap (Day 103): 27 | BUN (Day 103): 13 mg/dL | BUN/Creatinine Ratio (Day 103): 16.3 | CPK (Day 103): 103 U/L | Calcium (Day 103): 9.6 mg/dL | Chloride (Day 103): 107 mE/L | Cholesterol (Day 103): 146 mg/dL | Creatinine (Day 103): 0.8 mg/dL | Direct Billirubin (Day 103): 0.1 mg/dL | Eosinophils, (%) (Day 103): 1% | Eosinophils, absolute (Day 103): 165 | GGT (Day 103): 6 U/L | Globulin (Day 103): 2.4 g/dL | Glucose (Day 103): 107 mg/dL | Hematocrit (Day 103): 40.7% | Hemoglobin (Day 103): 13.4 g/dL | Indirect Billirubin (Day 103): 0 mg/dL | Lipase (Day 103): 630 U/L | Lymphocytes, (%) (Day 103): 71% | Lymphocytes, absolute (Day 103): 11715 | MCH (Day 103): 23.4 | MCHC (Day 103): 32.9 | MCV (Day 103): 71 | Monocytes, (%) (Day 103): 7% | Monocytes, absolute (Day 103): 1155 | Na/K ratio (Day 103): 28 | Neutrophils, (%) (Day 103): 20% | Neutrophils, absolute (Day 103): 3300 | Phosphorus (Day 103): 3.7 mg/dL | Platelet count (Day 103): 409 10^3/microl | Potassium (Day 103): 5.2 mE/L | RBC (Day 103): 5.72 10^6/microl | Sodium (Day 103): 148 mE/L | T4 (Day 103): 1.4 µg/dL | Total Billirubin (Day 103): 0.1 mg/dL | Total Protein (Day 103): 5.6 g/dL | WBC (Day 103): 16.5 10^3/microl | tCO2 (Day 103): 19 mEq/L | ALT (SGPT) (Day 128): 89 U/L | AST (SGOT) (Day 128): 23 U/L | Albumin (Day 128): 3.0 g/dL | Albumin/Globulin Ratio (Day 128): 1.2 | Alkaline Phosphatase (ALP) (Day 128): 45 U/L | Amylase (Day 128): 633 U/L | Anion Gap (Day 128): 22 | BUN (Day 128): 24 mg/dL | BUN/Creatinine Ratio (Day 128): 30 | CPK (Day 128): 53 U/L | Calcium (Day 128): 9.9 mg/dL | Chloride (Day 128): 116 mE/L | Cholesterol (Day 128): 133 mg/dL | Creatinine (Day 128): 0.8 mg/dL | Direct Billirubin (Day 128): 0.1 mg/dL | Eosinophils, (%) (Day 128): 2% | Eosinophils, absolute (Day 128): 330 | GGT (Day 128): 13 U/L | Globulin (Day 128): 2.6 g/dL | Glucose (Day 128): 116 mg/dL | Hematocrit (Day 128): 38.1% | Hemoglobin (Day 128): 12.3 g/dL | Indirect Billirubin (Day 128): 0 mg/dL | Lipase (Day 128): 415 U/L | Lymphocytes, (%) (Day 128): 46% | Lymphocytes, absolute (Day 128): 7774 | MCH (Day 128): 22.6 | MCHC (Day 128): 32.2 | MCV (Day 128): 70 | Monocytes, (%) (Day 128): 5% | Monocytes, absolute (Day 128): 845 | Na/K ratio (Day 128): 31 | Neutrophils, (%) (Day 128): 47% | Neutrophils, absolute (Day 128): 7943 | Phosphorus (Day 128): 3.1 mg/dL | Platelet count (Day 128): 508 10^3/microl | Potassium (Day 128): 4.8 mE/L | RBC (Day 128): 5.44 10^6/microl | Sodium (Day 128): 151 mE/L | T4 (Day 128): 1.1 µg/dL | Total Billirubin (Day 128): 0.1 mg/dL | Total Protein (Day 128): 5.6 g/dL | WBC (Day 128): 16.9 10^3/microl | tCO2 (Day 128): 19 mEq/L | general condition (during the first treatment course): steady improvement | progression of the disease (during the second treatment course, not to the degree of the first course): slowed down
